Test in all cases: NCI anticancer screen, dose series, 48 h
Test [1] deals with OVCAR-4 ovarian.
The test system of test [2] is KM20L2 colon.
Test [3] relates to MALME-3M melanoma.
For test [4], the system named is SW-620 colon.
For test [5], the system named is UO-31 renal.
Test [6] relates to SNB-75 CNS.
In test [7] the test system is RPMI-8226 leukemia.
In test [8] the test system is HOP-92 NSCLC.
The subject of test [9] is HOP-18 NSCLC.
For test [10], the system named is MCF7 breast.

SMILES strings stand for the structures. “And” between values parts separate entries of the source, which are not always exact repeats. Equal entries are not always repeated.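 In this assay, cells in 96-well plates receive the compound at five concentrations for 48 hours. Endpoints are linearly interpolated between the surrounding concentrations. At the GI50, growth is halved. TGI is the concentration that stops growth completely.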

Take `Nc1n[nH]c(=O)c2c1c(Br)cn2C1OC(CO)C(O)C1O` (stereo not given): the TGI in test [1] is 26.3 µM; in [2], above 100 µM; in test [3] it was 54.7 µM; in [4] it was above 100 µM; in test [5], 26.8 µM; in test [6], 11.2 µM. The TGI in [7] is 22.5 µM; in [8] it was 7.59 µM; in test [9] it was 65.6 µM.

Consider `O=C1c2ccccc2CC1C1(O)C(=O)Nc2c(Cl)cc(Cl)cc21` (stereo not given), for which the TGI in test [1], in test [2], in test [3], in test [4], in test [5] and in test [6] was above 100 µM throughout. The TGI in test [7], in test [8] and in test [9] was above 100 µM each time.

As to `O=C(NC(c1ccccc1)C(O)C(=O)OCc1ccc2c(c1)C(=O)c1ccccc1C2=O)c1ccccc1` (stereo not given), the TGI in test [1] is 4.99 µM; in test [2] it was above 100 µM; in test [3], 37.9 µM; in test [4] it was above 100 µM; in [5] it was 10.1 µM; in test [6], 24.6 µM. In addition, the TGI in test [7] is above 68.1 µM; in [8], 7.91 µM; in test [10], above 100 µM; in [9], 10.5 µM.

With `Cc1ccc(S(=O)(=O)c2ccccn2)cc1`, the TGI in [1], in test [2], in [3], in test [4], in test [5] and in test [6] was above 100 µM in each case. Also, the TGI in test [7], in test [8] and in [9] was above 100 µM each time.

Turning to `Cc1ccc(S(=O)(=O)NC2(C=O)CCC(C(C)(C)C)CC2)cc1` (stereo not given), the TGI in test [1] was above 100 µM; in [2] it was 75.4 µM; in test [3] it was above 100 µM; in [4], above 100 µM; in test [5], above 100 µM; in test [6] it was above 100 µM. The TGI is 46.3 µM in [7], 99.8 µM in test [8] and above 100 µM in test [9].

As to `O=C(Nc1cccc(Cl)c1)c1cc2cc(N=Nc3ccc(Br)cc3)ccc2oc1=O`, the TGI in test [1] is 88.7 µM; in [2] it was above 100 µM; in [3], above 100 µM; in test [4] it was above 100 µM; in test [5], above 100 µM; in test [6], above 100 µM. The TGI in [7], in test [8] and in test [9] was above 100 µM throughout.

For `C[CH2][Ge]1([CH2]C)[CH2]CC2(CCN(CCCN(C)C)C2)C[CH2]1`, the GI50 in test [1] is 0.694 µM and 4.41 µM; in test [2], 2.94 µM; in [3], 1.05 µM and 2.65 µM; in test [4], 1.46 µM and 1.65 µM; in test [5], 1.22 µM and 1.91 µM; in test [6], 0.175 µM and 1.48 µM. Besides, the GI50 in test [7] is 0.234 µM and 1.47 µM; in [8] it was 0.201 µM and 1 µM; in test [10] it was 0.99 µM and 2.42 µM; in test [9], 3.19 µM. The TGI in [1] was 6.79 µM and 11.6 µM; in test [2], 11 µM; in test [3] it was 1.96 µM and 4.33 µM; in test [4] it was 2.89 µM and 2.31 µM; in test [5], 2.48 µM and 3.68 µM; in test [6], 1.84 µM and 3.24 µM. Besides, the TGI was 0.976 µM and 2.52 µM in test [7]; 1.65 µM and 1.34 µM in [8]; 2.69 µM and 4.05 µM in [10]; 8.25 µM in test [9].

In the case of `Cc1cn2cc(-c3ccncc3)nc2s1`, the TGI in [1], in test [2], in test [3], in test [4], in test [5] and in test [6] was above 100 µM in each case. Besides, the TGI in test [7] was above 90.2 µM; in test [8], above 100 µM; in test [9], above 100 µM.

As for `O=C1OC2C(O)COC2(OCc2c[nH]c3ccccc23)C1O` (stereo not given) (tested in a mixture with another compound), the TGI in test [1], in [2], in test [3], in [4], in [5] and in [6] was above 100 µM throughout. For the same compound, the TGI in test [7], in test [8] and in [9] was above 100 µM each time.

As to `O=c1c2ccccc2nc(-c2ccccc2Cl)n1NC1OC(CO)C(O)C(O)C1O` (stereo not given), the TGI in test [1], in [2], in test [3], in test [4], in [5] and in test [6] was above 100 µM each time. The TGI in test [7], in [8] and in test [9] was above 100 µM each time.

As to `CC[N+]1(C)CCC(O)(/C=C/c2ccccc2)C(C(=O)/C=C/c2ccccc2)C1` (stereo not given), the TGI in [1] turned out to be 43.7 µM; in test [2] it was 49.3 µM; in test [3] it was 26.9 µM; in test [4], 6.45 µM; in test [5] it was 29.5 µM; in test [6] it was 34.7 µM. Also, the TGI was 5.76 µM in test [7], 31.4 µM in test [8], above 23.7 µM in test [10] and 31.3 µM in test [9].

On to `O=C1[C@@H]2C3C=CC([C@H]4C(=O)N(CO)C(=O)[C@@H]34)[C@@H]2C(=O)N1CO`, for which the TGI is above 100 µM in [1]; above 31.6 µM in test [2]; above 100 µM in [3]; above 65.5 µM in [4]; above 100 µM in [5]; above 100 µM in [6]. The TGI in test [7] was 49.5 µM; in test [8] it was above 100 µM; in [9] it was 86.4 µM.

On to `O=[N+]([O-])c1ccc(-c2ccc(C3=Nn4c(nnc4-c4ccc(Cl)cc4)SC3)o2)cc1`, for which the TGI is above 100 µM in test [1]; above 100 µM in test [2]; above 91.6 µM in test [3]; above 100 µM in test [4]; above 100 µM in [5]; above 65.3 µM in test [6]. In addition, the TGI is above 100 µM in [7], above 75.8 µM in test [8] and above 100 µM in [9].
